From patent US20260207564A1, “DOSAGE REGIME OF ORFORGLIPRON FOR TREATING A SUBJECT WITH TYPE 2 DIABETES (T2D), OBESITY, OR OVERWEIGHT WITH AT LEAST ONE WEIGHT RELATED COMORBIDITY” (Eli Lilly and Company, priority 2022, published 2026)

How the values were obtained:
[1] = Phase 2 study in obesity or overweight with at least one weight related comorbidity, 36 weeks (Example 4A); type: in vivo, human
From the text: The primary endpoint was the percentage change in body weight from baseline to week 26, with a secondary 36-week endpoint.
A 36-week Phase 2, multicenter, randomized, double-blind, parallel, placebo-controlled study was designed to examine the efficacy and safety of 4 dose levels of once daily administered Compound 1a, compared with once daily administered placebo in participants with obesity or overweight with at least one weight related comorbidity. A total of 272 patients were randomized 5:5:5:3:3:3:3 to once daily placebo or Compound 1a maintenance doses of 12 mg, 24 mg, 36 mg (36-1, 36-2) or 45 mg (45-1, 45-2) treatment groups. The 36 and 45 mg cohorts were subdivided in a 36 mg-1 and 36 mg-2 as well as 45 mg-1 and 45 mg-2 respectively, as different starting doses, dose escalations and dose escalation steps were investigated in these subgroup cohorts (FIG. 2). The different dose escalations were performed to assess the maintenance dose and titration steps for future trials.
Eligible male or female participants were >18 years of age with a HbA1c<6.5% (48 mmol/mol) and a BMI of ≥30 kg/m2 or ≥27 kg/m2 and <30 kg/m2 with at least 1 of the following weight-related comorbidities: hypertension, dyslipidemia, cardiovascular disease, or obstructive sleep apnea.
The study period included a 2-week screening/lead in period, a 36-week treatment period followed by a 2 week off-drug safety follow-up period. During the treatment period, doses were escalated for all treatment groups. The dose escalation period ranged from 0 to 16 weeks depending on dose group. The initial dose was 2 or 3 mg followed by additional escalation steps depending on assigned cohort (FIG. 2). Compound 1a or matching placebo was administered daily by oral capsule. All participants were provided healthy eating and exercise education by study personnel throughout the trial.
The primary endpoint was percent change in body weight from baseline at week 26. Secondary endpoints included percent change in body weight from baseline at week 36, change from baseline in body weight (kg), BMI (kg/m2) and waist circumference (cm), and percentage of study participants who achieved ≥5% body weight (kg) reduction, and ≥10% body weight (kg) reduction, at week 26 and week 36. Key safety endpoints included adverse events, blood pressure, heart rate, safety laboratory measures, PK parameters, and patient-reported outcomes.
A sample size of 270 participants was calculated to provide at least 90% power for testing superiority of Compound 1 versus placebo in the primary endpoint. The estimand used for efficacy analyses was an “efficacy estimand”, representing the average treatment effect for the randomized population if the treatment was administered as intended, thus including data from all randomized participants who received at least one dose of study drug and excluding data after permanent discontinuation of study drug. All tests of treatment effects were conducted at a 2-sided alpha level of 0.05 without adjustment for multiple comparisons, and 2-sided 95% CIs were calculated. To test efficacy of Compound 1a with adequate statistical power, for 36 mg and 45 mg the evaluation of the primary endpoint was made by pooling 2 dose escalation regimens (combining 36 mg-1 and 36 mg-2, for 36 mg, and combining 45 mg-1 and 45 mg-2, for 45 mg).
(§1) Safety analyses were conducted by comparing safety of Compound 1a with placebo irrespective of adherence to study drug. The safety analyses were conducted using the safety analysis set, which includes all randomized participants who received at least one dose of study drug. The results were presented in summary statistics, point estimates, and 95% confidence intervals along with p-values for treatment comparisons.

[2] = type: in vivo, human; conditions: 26 weeks, 3 mg to 45 mg QD
Method: Two Phase 2 studies have evaluated the safety and efficacy of Compound 1a for the treatment of T2D and another for treatment of obesity or overweight with at least one weight related comorbidity.
The 36 and 45 mg cohorts were subdivided in a 36 mg-1 and 36 mg-2 as well as 45 mg-1 and 45 mg-2 respectively, as different starting doses, dose escalations and dose escalation steps were investigated in these subgroup cohorts (FIG. 4).
Eligible male or female participants were >18 years of age with T2D with a HbA1c 7.0% to 10.5% and a body mass index (BMI) of ≥23 kg/m2, treated with diet and exercise alone or with a stable dose of metformin and with a stable body weight (≤5% body weight gain and/or loss) for at least 3 months prior to screening/Visit 1.
The study period included a 2-week screening/lead in period and a 26-week treatment period. During the treatment period, doses were escalated for all treatment groups. The dose escalation period ranged from 4 to 12 weeks depending on dose group. The initial dose was 2 or 3 mg followed by additional escalation steps depending on assigned cohort (FIG. 4). […] All participants were provided healthy eating and exercise education by study personnel throughout the trial.
Key Safety and tolerability endpoints included the frequency of patient- and investigator-reported adverse events, rate and incidence of hypoglycaemia events (glucose <70 mg/dL [3.9 mmol/L] and ≥54 mg/dL [3.0 mmol/L], or glucose <54 mg/dL [3.0 mmol/L]), and change in safety laboratory parameters, electrocardiogram, and vital signs.
The estimand used for efficacy analyses was an “efficacy estimand”, representing the average treatment effect for the randomized population if the treatment was administered as intended, thus including data from all randomized participants who received at least one dose of study drug and excluding data after permanent discontinuation of study drug. All tests of treatment effects were conducted at a 2-sided alpha level of 0.05 without adjustment for multiple comparisons, and 2-sided 95% CIs were calculated.
as §1, with “OFG” for “Compound 1a”, “placebo and with dulaglutide” for “placebo”

[3] = Phase 1 studies of clinical pharmacology, PK and PD in healthy volunteers and in participants with T2D; type: in vivo, human
From the text: The clinical pharmacology, PK, and PD of Compound 1a were studied in 2 completed Phase 1 studies in healthy volunteers and in participants with T2D).

[4] = after 12 weeks of treatment, 9 mg QD to 45 mg QD, people with T2D

- Liver function tests compared with placebo ([1]; in vivo): not significantly increased
- PK profile ([3]; Phase 1 studies): appropriate for once daily oral dosing
Structure (SMILES): Cc1cc(-n2nc3c(c2-n2ccn(-c4ccc5c(cnn5C)c4F)c2=O)[C@H](C)N(C(=O)c2cc4cc([C@H]5CCOC(C)(C)C5)ccc4n2[C@@]2(c4noc(=O)[nH]4)C[C@@H]2C)CC3)cc(C)c1F [Compound 1a, 3-[(1S,2S)-1-[5-[(4S)-2,2-dimethyloxan-4-yl]-2-[(4S)-2-(4-fluoro-3,5-dimethylphenyl)-3-[3-(4-fluoro-1-methylindazol-5-yl)-2-oxoimidazol-1-yl]-4-methyl-6,7-dihydro-4H-pyrazolo[4,3-c]pyridine-5-carbonyl]indol-1-yl]-2-methylcyclopropyl]-4H-1,2,4-oxadiazol-5-one]
- percentage of patients who had weight reduction of 15% or more ([1]; 36 weeks, 45 mg): 48%
- percentage of patients who had weight reduction of 10% or more ([1]; 36 weeks, across dose groups): 47% to 75
- percentage of patients who reported AEs ([1]; across dose groups): 86% to 90.2
- mean reduction in systolic blood pressure (SBP) ([1]; baseline to week 26, across dose groups): −4.8 to −10.5 mmHg
- mean reduction in systolic blood pressure (SBP) ([1]; baseline to week 36, across dose groups): −6.7 to −10.5 mmHg
- tolerability by escalation interval ([1]; dose escalated every 3 weeks compared to every 1-2 weeks): superior tolerability
- Most common TEAEs ([1]; in vivo): GI related (nausea, vomiting, diarrhea and constipation)
- diastolic blood pressure (DBP) compared to placebo ([1]; in vivo): No differences were noted
- health-related quality of life and physical activity readouts versus placebo ([1]; in vivo): greater improvements
- most common adverse events ([1]; in vivo): gastrointestinal, mild to moderate in severity
- most common events reported ([1]; in vivo): Nausea, constipation, vomiting, diarrhea, and eructation
- prespecified weight and cardiometabolic measures ([1]; in vivo): improvements in all prespecified weight and cardiometabolic measures
- mean percent weight loss compared to placebo ([1]; primary 26-week endpoint): 11%
- mean percent weight loss from baseline ([1]; primary 26-week endpoint): up to 13%
- GI AE events by starting dose ([1]; starting dose of 3 mg versus 2 mg starting dose): higher GI AE events
- mean percentage change in body weight from baseline ([1]; week 26, across dose groups 12-45 mg): −8.6% to −12.6
- HDL cholesterol versus placebo ([1]; week 36): no significant change
- changes in the fasting lipids (triglycerides, total cholesterol, non-HDL cholesterol, LDL and VLDL) ([1]; week 36): Benefits with Compound 1a were noted
- mean percentage change in body weight from baseline ([1]; week 36, across dose groups 12-45 mg): −9.4% to −14.7
- HbA1c treatment difference vs placebo [2]: −1.7%
- mean changes from baseline in HbA1c [2]: up to −2.1%
- mean weight loss [2]: up to 10 kg
- weight loss treatment difference vs placebo [2]: 8 kg
- PK of Compound 1a plasma concentration increase with dose ([3]; 9 mg QD to 45 mg QD dose range): approximately proportional to the increase of dose
- most reported AEs ([3]; Phase 1 studies): nausea, vomiting, and constipation
- improvements in HbA1c [3, 4]: up to −1.4%
- weight loss [3, 4]: up to −5.8 kg
